Laboratory results taken from US8148386B2, “Agent for the prevention and treatment of prostatic hyperplasia comprising pyrazolopyrimidinone compound” (priority 2006, dated 2012).
Read-outs that look alike come from different tables or passages of the source.

How the values were obtained:
[1] = Interrupt rate of administration due to side effects of PDE-5 inhibitors after clinical trials on impotence
[2] = Pharmacokinetic experiment in the human body (BPH patients); format: in vivo
Procedure: The test was carried out in a double-blind manner and the participants were administrated with the test drugs with 240 ml of water at 8:00 to 9:00 am of the test day. After administration, all participants were fasted for four hours. After the fast, they were served a lunch of standard diet and provided a dinner of standard diet nine hours after the lunch. Blood collections were carried out before administrating the test drugs and 0.5, 1, 1.5, 2, 2.5, 3, 4, 5, 6, 8, 12 and 24 hours after the administration on the test day. From the bloods collected, blood plasmas were separated and analyzed using high performance liquid chromatography (HPLC). […] of 0.1 M sodium carbonate and 1.0 ml of ethylether were added to each 0.5 ml of blood plasma and mixed well for one minute. Then, the resultant solutions were centrifuged at […] for three minutes. Subsequently, the supernatants were collected, from which organic solvents were volatilized using a Speed-Vac, to which […] of mobile phases were added, stirred and injected into the high performance liquid chromatography (HPLC).

[3] = Tissue distribution in urogenital organs; settings: male, Sprague-Dawley, rat, 30 mg/kg
Procedure: Male white Sprague-Dawley (SD) rats were randomly assigned by four to five rats at different time points. […] At different time points of 30 minutes, 2 hours and 6 hours after administration, bloods were collected through abdominal aortas and urogenital organs were extracted. Phosphate buffer of pH 7.4 was added to the extracted organs to be homogenized. […] Analyses were performed using a Hichrom HIRPB column (150×4.6 mm, particle size: 5 μm) at fixed wavelength of 292 nm with a mobile phase mixed with 20 nM of KH2PO4 and acetonitrile in a volume ratio of 70:30. The mobile phase flow rate was 1 ml/min. and the amount of sample introduced was 100 ml.

[4] = cited from earlier work
BPH rat models [5] = assay: Repeated administration: intraurethral pressure in BPH rat models; format: in vivo, Wistar rats; settings: oral 1, 5 and 20 mg/kg for 8 weeks; 5, 10 and 20 Hz electrostimulation of hypogastric nerves; FIGS. 1 to 4
Procedure: In the present experiment, thirty-six male white Wistar rats of 300 to 350 g were randomly divided into six control groups of six rats. The first group (1) was left untreated as a normal control group and the other groups were those whose testicles were […]. From a couple of days after the operations, each rat in the third to sixth groups was given a daily hypodermic injection of 1 mg of testosterone and 0.01 mg of 17 beta-estradiol for 8 weeks. The second group (2) was those whose testicles were […] only; the third group (3) was treated with a solvent; the fourth group (4) was treated with 1 mg/kg of the pyrazolopyrimidinone compound of formula 1; the fifth group (5) was treated with 5 mg/kg of the pyrazolopyrimidinone compound of formula 1; and the sixth group (6) was treated with 20 mg/kg of the pyrazolopyrimidinone compound of formula 1, the fourth to sixth groups being orally administrated for 8 weeks. After 8 weeks, all rats were anesthetized by an intraperitoneal injection with 50 mg/kg of pentobarbital, and intubated with polyethylene needles. […] In the measurement, 5, 10 and 20 Hz of electrostimulations were applied to hypogastric nerves using a stainless steel anode electrode, and the measured results were shown in FIGS. 1 to 4.

BPH rat models [6] = assay: Single administration: intraurethral pressure in BPH rat models; format: in vivo, Wistar rats
Procedure: In the present experiment, thirty male white […] rats of 300 to 350 g were randomly divided into five control groups of six rats. The first group (1') was left untreated as a normal group and the other groups were those whose testicles were resected. From a couple of days after the operations, each rat in the third to fifth groups was given a daily hypodermic injection of 1 mg of testosterone and 0.01 mg of 17 beta-estradiol for 8 weeks. After 8 weeks, all rats were anesthetized by an intraperitoneal injection with 50 mg/kg of pentobarbital, and intubated with polyethylene needles. The second group (2') was those whose testicles were resected only; the third group (3') was treated with a solvent; the fourth group (4') was treated with 0.3 mg/kg of the pyrazolopyrimidinone compound of formula 1; and the fifth group (5') was treated with 1 mg/kg of the pyrazolopyrimidinone compound of formula 1, the fourth and fifth groups being administrated via intravenous injections. […] In the measurement, 5, 10 and 20 Hz of electrostimulations were applied to hypogastric nerves using a stainless steel anode electrode, and the measured results were shown in FIGS. 5 to 8.

[7] = Phase 1 clinical trial: safety, tolerability and pharmacokinetics in healthy adults; format: in vivo, human
PDE-5 = PDE-5 (Homo sapiens, UniProt O76074); assay: Inhibition of PDE-5 activity; format: biochemical
PDE-11 = PDE-11 (Homo sapiens, UniProt Q9HCR9)
[8] = Xenobiotica 2004 34:973-982; cited from earlier work

Chain of PDE-11 (Q9HCR9 whole entry): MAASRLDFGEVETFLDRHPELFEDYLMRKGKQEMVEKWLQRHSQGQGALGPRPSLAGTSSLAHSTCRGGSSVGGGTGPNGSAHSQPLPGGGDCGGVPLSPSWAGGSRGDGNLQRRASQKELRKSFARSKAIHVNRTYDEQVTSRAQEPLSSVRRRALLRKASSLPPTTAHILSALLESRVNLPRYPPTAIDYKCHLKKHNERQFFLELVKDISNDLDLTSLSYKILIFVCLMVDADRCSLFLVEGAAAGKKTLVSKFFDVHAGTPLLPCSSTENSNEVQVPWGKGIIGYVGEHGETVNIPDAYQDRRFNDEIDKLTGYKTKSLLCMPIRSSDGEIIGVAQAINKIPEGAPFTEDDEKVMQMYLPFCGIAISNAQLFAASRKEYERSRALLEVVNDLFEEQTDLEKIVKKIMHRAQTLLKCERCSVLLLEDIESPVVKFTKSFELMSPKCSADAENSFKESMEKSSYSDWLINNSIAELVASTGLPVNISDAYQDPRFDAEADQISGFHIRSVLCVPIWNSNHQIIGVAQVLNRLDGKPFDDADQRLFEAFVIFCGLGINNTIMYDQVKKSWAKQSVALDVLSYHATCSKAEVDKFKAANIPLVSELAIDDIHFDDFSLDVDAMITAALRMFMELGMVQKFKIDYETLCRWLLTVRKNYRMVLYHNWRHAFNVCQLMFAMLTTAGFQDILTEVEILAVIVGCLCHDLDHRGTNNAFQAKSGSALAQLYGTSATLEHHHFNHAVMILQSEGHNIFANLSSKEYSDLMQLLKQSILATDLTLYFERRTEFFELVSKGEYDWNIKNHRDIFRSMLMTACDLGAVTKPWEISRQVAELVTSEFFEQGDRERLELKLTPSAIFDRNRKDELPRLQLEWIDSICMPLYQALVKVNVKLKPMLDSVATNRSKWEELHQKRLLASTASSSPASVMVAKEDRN

Compound: CCCc1nc(C)c2c(=O)[nH]c(-c3cc(S(=O)(=O)N4CCN(CC)CC4)ccc3OCC)nn12 [Levitra]
- Interrupt rate (%) of administration due to side effects ([1]; 5 mg): 2.7%
- Interrupt rate (%) of administration due to side effects ([1]; 10 mg): 2.9%
- Interrupt rate (%) of administration due to side effects ([1]; 20 mg): 6.6%

Compound: CCCc1nn(C)c2c(=O)[nH]c(-c3cc(S(=O)(=O)N4CCN(C)CC4)ccc3OCC)nc12 [Sildenafil]
- half-life ([2]; 50 mg, BPH patients, plasma): 4.1 ± 1.1 time
- half-life ([2]; male, human, plasma, oral, summary of Table 3, read-out: half-life): 3 to 5 h
- concentration at 30 min [3]: 319 ng/mL
- concentration at 120 min [3]: 633 ng/mL
- concentration at 360 min [3]: 259 ng/mL
- Interrupt rate (%) of administration due to side effects ([1]; 25 mg): 0.0%
- Interrupt rate (%) of administration due to side effects ([1]; 50 mg): 0.7%
- Interrupt rate (%) of administration due to side effects ([1]; 100 mg): 3.9%

Compound: CN1CC(=O)N2[C@H](c3ccc4c(c3)OCO4)c3[nH]c4ccccc4c3C[C@@H]2C1=O [Cialis]
- IPSS change ([4]; 5 mg once a day for 6 weeks): 2.8 points
- IPSS change ([4]; dose increased to 20 mg, additional 6 weeks): 3.8 points
- interrupt rate of administration due to the side effects ([4]; phase 2 clinical trial): 3.6%
- Interrupt rate (%) of administration due to side effects ([1]; 5 mg): 0.7%
- Interrupt rate (%) of administration due to side effects ([1]; 10 mg): 1.6%
- Interrupt rate (%) of administration due to side effects ([1]; 20 mg): 3.1%

Compound: CCCOc1ccc(S(=O)(=O)NCCC2CCCN2C)cc1-c1nc2c(CCC)nn(C)c2c(=O)[nH]1 (stereo not shown) [Compound of formula 1, 5-[2-propyloxy-5-(1-methyl-2-pyrrolidinylethylamidosulfonyl)phenyl]-1-methyl-propyl-1,6-dihydro-7H-pyrazolo(4,3-d)pyrimidin-7-one]
- intraurethral pressures (IUP) (BPH rat models [5]): decreased dose-dependently and significantly
- intraurethral pressure, significance of decrease (BPH rat models [6]; 0.3 mg/kg intravenous, 5 and 10 Hz): did not show significant decreases
- intraurethral pressure, significance of change (BPH rat models [6]; 0.3 mg/kg intravenous, 20 Hz): significant increase
- prevention of increases in the intraurethral pressure in comparison with sildenafil (BPH rat models [6]; single administration, sildenafil of same volume): excellent effects
- increases in the intraurethral pressure (BPH rat models [6]; single intravenous injection 0.3 and 1 mg/kg, FIGS. 5 to 8): prevented dose-dependently
- half-life ([2]; human, in vivo, 100 mg): 12.1 ± 3.2 h
- half-life ([2]; male, human, in vivo): 9 to 15 h
- half-life ([7]; human, in vivo, oral, regardless of the doses administrated, healthy adults): 9 to 15 h
- Tmax ([7]; human, in vivo, after oral administration, healthy adults): 1 to 2 h
- abnormal responses to the test substance ([7]; phase 1 clinical trial): no serious abnormal responses
- accumulation of drug ([7]; repeated administration once a day for 7 days): not observed
- inhibitive activity for PDE-5 (PDE-5): strong inhibitive activity
- selectivity for PDE-5 (PDE-5): excellent selectivity
- inhibition of the activity of PDE-11 (PDE-11): does not have an inhibiting power
- residual rate after liver metabolism [8]: 93.0%
- Interrupt rate (%) of administration due to side effects ([1]; 100 mg): 0.0%
- Interrupt rate (%) of administration due to side effects ([1]; 200 mg): 1.2%
